Source: PubChem BioAssay (NCI)
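All cell lines were grown in 96-well plates and treated with compound for 48 hours. At the GI50, growth is halved. Definition used: TGI = concentration required for complete inhibition of growth.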

Legend:
Test in all cases: NCI anticancer screen, dose series, 48 h
SNB-19 CNS = test system: SNB-19 CNS
MOLT-4 leukemia = test system: MOLT-4 leukemia
HS 578T breast = test system: HS 578T breast
MDA-MB-231 breast = test system: MDA-MB-231 breast
EKVX NSCLC = test system: EKVX NSCLC
OVCAR-5 ovarian = test system: OVCAR-5 ovarian
786-0 renal = test system: 786-0 renal
SK-MEL-5 melanoma = test system: SK-MEL-5 melanoma
T-47D breast = test system: T-47D breast
SR leukemia = test system: SR leukemia
U251 CNS = test system: U251 CNS
CAKI-1 renal = test system: CAKI-1 renal
OVCAR-4 ovarian = test system: OVCAR-4 ovarian
NCI-H460 lung = test system: NCI-H460 lung
SW-620 colon = test system: SW-620 colon
CCRF-CEM leukemia = test system: CCRF-CEM leukemia
BT-549 breast = test system: BT-549 breast
A498 renal = test system: A498 renal
K-562 leukemia = test system: K-562 leukemia
MCF7 breast = test system: MCF7 breast
OVCAR-8 ovarian = test system: OVCAR-8 ovarian
LOX IMVI melanoma = test system: LOX IMVI melanoma
RXF 393 renal = test system: RXF 393 renal
HCC-2998 colon = test system: HCC-2998 colon
HL-60(TB) leukemia = test system: HL-60(TB) leukemia
NCI-H522 lung = test system: NCI-H522 lung
UO-31 renal = test system: UO-31 renal
ACHN renal = test system: ACHN renal
KM12 colon = test system: KM12 colon
SF-268 CNS = test system: SF-268 CNS
PC-3 prostate = test system: PC-3 prostate
NCI-H23 lung = test system: NCI-H23 lung
SK-MEL-28 melanoma = test system: SK-MEL-28 melanoma
A549 NSCLC = test system: A549 NSCLC
SF-295 CNS = test system: SF-295 CNS
HOP-62 NSCLC = test system: HOP-62 NSCLC
SF-539 CNS = test system: SF-539 CNS
SNB-75 CNS = test system: SNB-75 CNS
TK-10 renal = test system: TK-10 renal
SN12C renal = test system: SN12C renal
HCT-15 colon = test system: HCT-15 colon
HOP-92 NSCLC = test system: HOP-92 NSCLC
MALME-3M melanoma = test system: MALME-3M melanoma
RPMI-8226 leukemia = test system: RPMI-8226 leukemia
IGROV1 ovarian = test system: IGROV1 ovarian
SK-OV-3 ovarian = test system: SK-OV-3 ovarian
HCT-116 colon = test system: HCT-116 colon
M14 melanoma = test system: M14 melanoma
NCI-H226 lung = test system: NCI-H226 lung
DU-145 prostate = test system: DU-145 prostate
UACC-62 melanoma = test system: UACC-62 melanoma
COLO 205 colon = test system: COLO 205 colon
NCI/ADR-RES ovarian = test system: NCI/ADR-RES ovarian
HT29 colon = test system: HT29 colon
UACC-257 melanoma = test system: UACC-257 melanoma
OVCAR-3 ovarian = test system: OVCAR-3 ovarian
MDA-MB-435 = test system: MDA-MB-435
SK-MEL-2 melanoma = test system: SK-MEL-2 melanoma

C=C(C)[C@@H]1CC[C@]2(C(N)=O)CC[C@]3(C)[C@H](CC[C@@H]4[C@@]5(C)C/C(=C/c6cccnc6)C(=O)C(C)(C)[C@@H]5CC[C@]43C)[C@@H]12 was tested, and the GI50 (SNB-19 CNS) was 9.22 µM, the TGI (SNB-19 CNS) was greater than 100 µM and the GI50 (MOLT-4 leukemia) was 3.14 µM. For the same compound, the TGI (MOLT-4 leukemia) was greater than 100 µM, the GI50 (HS 578T breast) was 17.9 µM and the TGI (HS 578T breast) was greater than 100 µM. The GI50 (MDA-MB-231 breast) was 15.2 µM, the TGI (MDA-MB-231 breast) was greater than 100 µM and the GI50 (EKVX NSCLC) was 4.99 µM. The TGI (EKVX NSCLC) was 67 µM, the GI50 (OVCAR-5 ovarian) was 12.7 µM and the TGI (OVCAR-5 ovarian) was 39.7 µM. For the same compound, the GI50 (786-0 renal) was 14.7 µM, the TGI (786-0 renal) was greater than 100 µM and the GI50 (SK-MEL-5 melanoma) was 5.42 µM. The TGI (SK-MEL-5 melanoma) was 17.6 µM, the GI50 (T-47D breast) was 3.99 µM and the TGI (T-47D breast) was greater than 100 µM. It also gave a GI50 (SR leukemia) of 5.1 µM, a TGI (SR leukemia) greater than 100 µM and a GI50 (U251 CNS) of 7.3 µM. For the same compound, the TGI (U251 CNS) was 47.2 µM, the GI50 (CAKI-1 renal) was 2.56 µM and the TGI (CAKI-1 renal) was 21.2 µM. The GI50 (OVCAR-4 ovarian) was 4.28 µM, the TGI (OVCAR-4 ovarian) was greater than 100 µM and the GI50 (NCI-H460 lung) was 8.32 µM. The TGI (NCI-H460 lung) was 25.1 µM, the GI50 (SW-620 colon) was 8.82 µM and the TGI (SW-620 colon) was greater than 100 µM. It also gave a GI50 (CCRF-CEM leukemia) of 4.48 µM, a TGI (CCRF-CEM leukemia) greater than 100 µM and a GI50 (BT-549 breast) of 8.89 µM. It also gave a TGI (BT-549 breast) greater than 100 µM, a GI50 (A498 renal) of 23.8 µM and a TGI (A498 renal) greater than 100 µM. For the same compound, the GI50 (K-562 leukemia) was 3.75 µM, the TGI (K-562 leukemia) was greater than 100 µM and the GI50 (MCF7 breast) was 3.49 µM. It also gave a TGI (MCF7 breast) greater than 100 µM, a GI50 (OVCAR-8 ovarian) of 9.96 µM and a TGI (OVCAR-8 ovarian) greater than 100 µM. It also gave a GI50 (LOX IMVI melanoma) of 5.89 µM, a TGI (LOX IMVI melanoma) of 18.6 µM and a GI50 (RXF 393 renal) of 3.41 µM. It also gave a TGI (RXF 393 renal) of 16.4 µM, a GI50 (HCC-2998 colon) of 9.04 µM and a TGI (HCC-2998 colon) greater than 100 µM. For the same compound, the GI50 (HL-60(TB) leukemia) was 3.15 µM, the TGI (HL-60(TB) leukemia) was 13.9 µM and the GI50 (NCI-H522 lung) was 6.77 µM. It also gave a TGI (NCI-H522 lung) of 63 µM, a GI50 (UO-31 renal) of 3.08 µM and a TGI (UO-31 renal) greater than 100 µM. It also gave a GI50 (ACHN renal) of 4.96 µM, a TGI (ACHN renal) greater than 100 µM and a GI50 (KM12 colon) of 4.67 µM. For the same compound, the TGI (KM12 colon) was 64.1 µM, the GI50 (SF-268 CNS) was 7.52 µM and the TGI (SF-268 CNS) was greater than 100 µM. For the same compound, the GI50 (PC-3 prostate) was 2.36 µM, the TGI (PC-3 prostate) was 25.6 µM and the GI50 (NCI-H23 lung) was 14.7 µM. For the same compound, the TGI (NCI-H23 lung) was greater than 100 µM, the GI50 (SK-MEL-28 melanoma) was 8.81 µM and the TGI (SK-MEL-28 melanoma) was 33.2 µM. It also gave a GI50 (A549 NSCLC) of 3.84 µM, a TGI (A549 NSCLC) greater than 100 µM and a GI50 (SF-295 CNS) of 3.84 µM. The TGI (SF-295 CNS) was 42.3 µM, the GI50 (HOP-62 NSCLC) was 12.4 µM and the TGI (HOP-62 NSCLC) was greater than 100 µM. It also gave a GI50 (SF-539 CNS) of 10.9 µM, a TGI (SF-539 CNS) of 33.3 µM and a GI50 (SNB-75 CNS) of 8.63 µM. The TGI (SNB-75 CNS) was greater than 100 µM, the GI50 (TK-10 renal) was 24.7 µM and the TGI (TK-10 renal) was greater than 100 µM. It also gave a GI50 (SN12C renal) of 5.88 µM, a TGI (SN12C renal) greater than 100 µM and a GI50 (HCT-15 colon) of 4.4 µM. For the same compound, the TGI (HCT-15 colon) was greater than 100 µM, the GI50 (HOP-92 NSCLC) was 3.21 µM and the TGI (HOP-92 NSCLC) was greater than 100 µM. It also gave a GI50 (MALME-3M melanoma) of 7.54 µM, a TGI (MALME-3M melanoma) of 41.7 µM and a GI50 (RPMI-8226 leukemia) of 2.44 µM. The TGI (RPMI-8226 leukemia) was 22.1 µM, the GI50 (IGROV1 ovarian) was 14 µM and the TGI (IGROV1 ovarian) was greater than 100 µM. For the same compound, the GI50 (SK-OV-3 ovarian) was 10.6 µM, the TGI (SK-OV-3 ovarian) was greater than 100 µM and the GI50 (HCT-116 colon) was 3.96 µM. For the same compound, the TGI (HCT-116 colon) was 66.4 µM, the GI50 (M14 melanoma) was 8.05 µM and the TGI (M14 melanoma) was greater than 100 µM. The GI50 (NCI-H226 lung) was 6.9 µM, the TGI (NCI-H226 lung) was 60.7 µM and the GI50 (DU-145 prostate) was 8.36 µM. For the same compound, the TGI (DU-145 prostate) was greater than 100 µM, the GI50 (UACC-62 melanoma) was 5.97 µM and the TGI (UACC-62 melanoma) was 29.9 µM. For the same compound, the GI50 (COLO 205 colon) was 7.14 µM, the TGI (COLO 205 colon) was 27.6 µM and the GI50 (NCI/ADR-RES ovarian) was 7.13 µM. The TGI (NCI/ADR-RES ovarian) was greater than 100 µM, the GI50 (HT29 colon) was 6.03 µM and the TGI (HT29 colon) was 52.7 µM. It also gave a GI50 (UACC-257 melanoma) of 7.2 µM, a TGI (UACC-257 melanoma) greater than 100 µM and a GI50 (OVCAR-3 ovarian) of 5.91 µM. The TGI (OVCAR-3 ovarian) was 43.8 µM, the GI50 (MDA-MB-435) was 5.52 µM and the TGI (MDA-MB-435) was greater than 100 µM. It also gave a GI50 (SK-MEL-2 melanoma) of 12.1 µM and a TGI (SK-MEL-2 melanoma) of 39.8 µM.
